According to the supplement of paper PMC6723410:

Tested on: GUMC-403
Assay: viability at highest tested concentration (max response) relative to DMSO (% of DMSO control); higher = less cytotoxic
Details: library / dose series: MIPE library, 11-point 1:3 dilution, 48 h
Method in brief: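 This value is viability at the highest tested concentration relative to vehicle control. GUMC-403 papilloma cells from a patient, grown by conditional reprogramming, were plated at 700/well in 1536-well plates and given 23 nL of compound by pin tool for 48 h. CellTiter-Glo luminescence on a ViewLux was normalised with vehicle wells at 100% and empty wells at 0%.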

Compound | viability (top concentration 46.1 µM) | also measured
COc1cc(C(=O)N2CCC(N3CCN(C)CC3)CC2)ccc1Nc1ncc2c(n1)N(C)c1ccccc1C(=O)N2C | 78.9 | 
O=C1CSC(=O)N1C(CCc1ccncc1)COc1ccc(-c2cccc([N+](=O)[O-])c2)cc1 (stereo not drawn) | 79.8 | 
O=C(Nc1ccc(F)c(C(F)(F)F)c1)Nc1nnc(-c2ccncc2)s1 | 94 | 
N[C@@H](Cc1cc(I)c(Oc2cc(I)c(O)c(I)c2)c(I)c1)C(=O)O | 123 | 
O=[S+]([O-])(O)c1ccc2cc(/N=N/c3cc([S+](=O)([O-])O)c4cccnc4c3O)ccc2c1 | 126 | 
COc1ccc(Cc2ccc(NC(N)=O)cc2)cc1-c1cccc(Cl)c1 | 124 | 
CCCCC[C@H](O)/C=C/[C@H]1[C@H](O)CC(=O)[C@@H]1C/C=C\CCCC(=O)O | 119 | 
CN(C)c1nc(N(C)C)nc(N(C)C)n1 | 95.4 | 
C/C=C/C[C@@H](C)C(=O)[C@H]1C(=O)N[C@@H](C(C)C)C(=O)N(C)CC(=O)N(C)[C@@H](CC(C)C)C(=O)N[C@@H](C(C)C)C(=O)N(C)[C@@H](CC(C)C)C(=O)N[C@@H](C)C(=O)N[C@H](C)C(=O)N(C)[C@@H](CC(C)C)C(=O)N(C)[C@@H](CC(C)C)C(=O)N(C)[C@@H](C(C)C)C(=O)N1C | 90.6 | 
COc1ccc2c(c[n+](C)c3c4cc5c(cc4ccc23)OCO5)c1OC | 38.7 | 
O=C(C1CCCCC1)N1CC(=O)N2CCc3ccccc3C2C1 (stereo not drawn) | 109 | 
CC(C)c1ccc2oc3nc(N)c(C(=O)O)cc3c(=O)c2c1 | 116 | 
CCC(c1ccc(O)cc1)C(CC)c1ccc(O)cc1 (stereo not drawn) | 116 | 
Clc1ccc2c(N3CCN(CCCN4CCN(c5ccnc6cc(Cl)ccc56)CC4)CC3)ccnc2c1 |  | viability (top concentration 23 µM): 119
N#CC1(c2ccc(NC(=O)c3cccnc3NCc3ccncc3)cc2)CCCC1 | 101 | 
CCC(CC)[C@H](NC(C)=O)[C@@H]1[C@H](O)[C@@H](C(=O)O)C[C@H]1NC(=N)N | 106 | 
Cc1oncc1C(=O)Nc1ccc(C(F)(F)F)cc1 | 105 | 
N#Cc1ccc(NC(=O)Nc2ccccc2Br)c2nn[nH]c12 | 129 | 
COC(=O)Nc1nc2cc(C(=O)c3ccc(F)cc3)ccc2[nH]1 | 88 | 
C[C@H](NC(=O)/C(C#N)=C/c1cccc(Br)n1)c1ccccc1 | 31.7 | 
COC(=O)N[C@H](C(=O)N1CCC[C@H]1c1ncc(-c2ccc(-c3ccc(-c4cnc([C@@H]5CCCN5C(=O)[C@@H](NC(=O)OC)C(C)C)[nH]4)cc3)cc2)[nH]1)C(C)C | 138 | 
CC(=O)O.Cc1c(-c2ccc(O)cc2)n(Cc2ccc(OCCN3CCCCCC3)cc2)c2ccc(O)cc12 | 130 | 

Compound | viability (top concentration 46.1 µM) | also measured
Cc1ccccc1C(=O)Nc1ccc(C(=O)N2CCCC(O)c3cc(Cl)ccc32)c(C)c1 (stereo not drawn) | 108 | 
C[C@@H](NC(=O)c1ncnc(N)c1Cl)c1ncc(C(=O)Nc2cc(C(F)(F)F)c(Cl)cn2)s1 | 109 | 
NCCc1ccc(O)c(O)c1 | 108 | 
O=C(O)COCCN1CCN(C(c2ccccc2)c2ccc(Cl)cc2)CC1 (stereo not drawn) | 117 | 
CN(C)[C@@H](CCOc1cccc2ccccc12)c1ccccc1 | 92.3 | 
Cl.Cl.Cl.O[C@@H](COc1cccc2ncccc12)CN1CCN([C@@H]2c3ccccc3[C@@H]3[C@H](c4ccccc42)C3(F)F)CC1 | 70.9 | 
O=S(=O)([O-])CCS.[Na+] | 147 | 
Nc1ccn([C@H]2CS[C@@H](CO)O2)c(=O)n1 |  | viability (top concentration 92.2 µM): 106
CC1(C)OC2CC3C4CC(F)C/5=C/C(=O)/C=C\C5(C)C4C(O)CC3(C)[C@@]2(O1)C(=O)CO (stereo partly drawn) | 148 | 
CC(Oc1ccc(O)cc1)(P(=O)(O)O)P(=O)(O)O | 112 | 
CN1CCN(CC1)C2=CC3=C([NH]C(=N3)C/4=C(\N)C5=C(F)C=CC=C5NC4=O)C=C2 | 123 | 
CN(C)CCOc1cc(-c2cn[nH]c2)ccc1NC(=O)C1COc2ccccc2O1 (stereo not drawn) | 117 | 
CNC(=O)c1ccc2c(c1)NC(=O)/C2=C(\Nc1cccc(CN(C)C)c1)c1ccccc1 | 107 | 
CCn1c(C(=O)N(C2CC2)C2CC2)cc2c3c(ncn3C)c(Nc3cc(C)n(C)n3)nc21 | 118 | 
Cc1ccc([S+](=O)([O-])NC(=O)NN2CC3CCCC3C2)cc1 (stereo not drawn) | 109 | 
Cc1noc(-c2ccc(CSCCC(=O)O)cc2)c1NC(=O)OC(C)c1ccccc1Cl (stereo not drawn) | 106 | 
NC(=O)C1CCCc2c1[nH]c1ccc(Cl)cc21 (stereo not drawn) | 96 | 
O=C(O)C1(Cc2cccc(Nc3nccs3)n2)CCC(Oc2cccc(Cl)c2F)CC1 (stereo not drawn) | 115 | 
Oc1ccc([C@@H]2Oc3ccc(O)cc3[C@@H]3CCC[C@@H]32)cc1 | 96.3 | 
C[C@]\12CCC(=O)\C=C1[C@@H]3C[C@@H]3[C@@H]4[C@@H]2CC[C@@]5(C)[C@H]4[C@@H]6C[C@@H]6[C@@]57CCC(=O)O7 | 89.8 | 
CC(c1cc2ccccc2s1)N(O)C(N)=O (stereo not drawn) | 96.7 | 
Cc1cc(/C=c2/sc3nc4ccccc4n3c2=O)c(C)n1-c1ccccc1 | 106 | 

Compound | viability (top concentration 46.1 µM) | also measured
CC/1=C/C(=O)N(O)/C(=C1)C2CCCCC2 | 27.2 | 
COC1=NC(=NC(=C1N\C2=N\CCN2)Cl)C | 95.8 | 
OC1=C(Cl)C=C(N\C2=C(\C(=O)NC2=O)C3=C(C=CC=C3)[N+]([O-])=O)C=C1 | 103 | 
OC[C@H](Cc1ccccc1)Nc1nc(Oc2ccc3c(c2)CCC3)nc2c1ncn2Cc1ccc(-c2ccccc2)cc1 | 101 | 
COc1ccc(/C=C\c2cc(OC)c(OC)c(OC)c2)cc1O | 93.7 | 
C[C@H](CCC(=O)O)[C@H]1CCC2C3C[C@H](O)[C@@H]4C[C@H](O)CC[C@]4(C)C3CC[C@@]21C (stereo partly drawn) | 108 | 
CCOC(=O)[C@H](CCc1ccccc1)N[C@H]1CCc2ccccc2N(CC(=O)O)C1=O | 124 | 
COc1ccc(C(=O)CC2(O)C(=O)Nc3c(Cl)ccc(Cl)c32)cc1 (stereo not drawn) | 113 | 
CC(C)n1nc(-c2ccc3oc(N)nc3c2)c2c(N)ncnc21 | 29.8 | 
Clc1ccc(C(Cn2ccnc2)OCc2ccc(Sc3ccccc3)cc2)c(Cl)c1 (stereo not drawn) | 118 | 
O=C(/C=C/c1cccc([S+](=O)([O-])Nc2ccccc2)c1)NO |  | viability (top concentration 92.2 µM): 87.7
CN1\C(=C(\O)C2=CC=CC=C2[S+]1([O-])=O)C(=O)NC3=NC=C(C)S3 | 121 | 
Clc1cccc(-c2nnnn2Cc2cccnc2)c1Cl | 113 | 
N[S+](=O)([O-])c1cc(Cl)c(Cl)c([S+](N)(=O)[O-])c1 | 109 | 
Nc1nc(N)c2nc(CNc3ccc(C(=O)NC(CCC(=O)O)C(=O)O)cc3)cnc2n1 (stereo not drawn) | 76.6 | 
C[C@]12C[C@H](O)[C@H]3[C@@H](CC\C4=C\C(=O)\C=C/[C@]34C)[C@@H]1CC[C@]2(O)C(=O)CO | 118 | 
CN(C)/N=N/c1nc[nH]c1C(N)=O | 123 | 
CC(C)C(=O)Nc1ncc(-c2cc(C(F)F)nn2-c2c(Cl)cccc2Cl)s1 | 90.8 | 
CCCc1nc2c(C)cc(-c3nc4ccccc4n3C)cc2n1Cc1ccc(-c2ccccc2C(=O)O)cc1 | 118 | 
N=C(N)NC(=N)NCCc1ccccc1 | 83.9 | 
CC(=O)OCC(CCn1cnc2cnc(N)nc21)COC(C)=O | 116 | 
C[C@H](Cc1ccc(O)c(O)c1)[C@@H](C)Cc1ccc(O)c(O)c1 | 110 | 

Compound | viability (top concentration 46.1 µM) | also measured
COc1ccccc1N1CCN(CC(O)COc2cccc3ccccc23)CC1 (stereo not drawn) | 99.1 | 
CC(C)c1nc(CN(C)C(=O)N[C@H](C(=O)N[C@@H](Cc2ccccc2)C[C@H](O)[C@H](Cc2ccccc2)NC(=O)OCc2cncs2)C(C)C)cs1 | 99.7 | 
COc1ccc(C2(C#N)CCC(C(=O)O)CC2)cc1OC1CCCC1 (stereo not drawn) | 123 | 
Fc1cc(-c2cccc3ncc(-c4cnn(C5CCNCC5)c4)nc23)cc(F)c1CN1CCOCC1 | 108 | 
Cc1cc2c(cc1C1(c3ccc(C(=O)O)cn3)CC1)C(C)(C)CCC2(C)C | 129 | 
NC(=O)c1ccc(N(C(N)=O)c2c(F)cccc2F)nc1-c1ccc(F)cc1F | 109 | 
COc1ccc(CCC(=O)Nc2nc3ccc(Cl)cc3s2)cc1OC | 47.9 | 
O=C1[O][Pt]2([NH]C3CCCCC3[NH]2)[O]C1=O (stereo not drawn) | 113 | 
CC(C)N(CCNC(=O)CN1CCCC1=O)C(C)C | 103 | 
O=C(O)c1cccnc1 | 103 | 
CCCN1CCO[C@@H]2c3cc(O)ccc3OC[C@H]21 | 102 | 
O=c1[nH]cnc2c1ncn2[C@H]1CC[C@@H](CO)O1 | 144 | 
CC(C)OC(=O)C(C(=O)OC(C)C)=C1S\C=C/S1 | 104 | 
CN1CCN(CCCN2c3ccccc3Sc3ccc(C(F)(F)F)cc32)CC1 | 79.1 | 
NCCCC(N)(C(=O)O)C(F)F (stereo not drawn) | 114 | 
CN1CCCC(CC1)N2\N=C(CC3=CC=C(Cl)C=C3)/C4=C(C=CC=C4)C2=O (stereo not drawn) | 78.8 | 
CC=CC1=C(C(=O)O)N2C(=O)[C@@H](NC(=O)[C@H](N)c3ccc(O)cc3)[C@H]2SC1.O | 147 | 
N=C1N[C@H]2[C@H](CS[C@H]2CCCCC(=O)O)N1 |  | viability (top concentration 23 µM): 134
O=C1N\2CCC3=C([NH]C4=C3C=CC=C4)C2=N/C5=CC=CC=C15 | 109 | 
CN(C)c1nc(Cc2ccc(NC(=O)c3ccc(C(F)(F)F)cc3)cc2)nc(N(C)C)c1CC(=O)O | 127 | 
C=CCc1ccc(O)c(-c2ccc(O)c(CC=C)c2)c1 | 80.6 | 
COc1ccccc1OCCNCC(O)COc1cccc2[nH]c3ccccc3c12 (stereo not drawn) | 102 | 
